{"source": "patent US9044420B2", "about": "“Immunogenic compositions and methods of using the compositions for inducing humoral and cellular immune responses” (IMMUNE DESIGN CORP., priority 2011, dated 2015)", "key": {"[1]": {"tested_on": "Splenic CD4 T cell responses (SIV-Gag DD13 epitope)", "assay": "Splenic CD4 T cell responses by ICS after SIV-Gag protein with or without GLA-SE (Example 8)", "type": "in vivo, C57BL/6 mice", "conditions": "5 μg SIV-Gag protein + 5 μg GLA-SE vs SE alone or PBS, i.m. d0/d21, day 5 post-boost", "method": "C57BL/6 mice (4 per group) were immunized intramuscularly via a prime/boost immunization regimen (d0 prime/d21 boost) with 5 μg of recombinant SIV-Gag protein+5 μg of GLA-SE, SE alone, or PBS. Splenic CD4 T cell responses were measured on day 5 post-boost by ICS for IFN-γ, TNF-α, and IL-2 after ex vivo re-stimulation with SIV-Gag CD4 T cell epitope containing peptide DD13 (amino acids 299-311 of SIV-GAG; DRFYKSLRAEQTD; SEQ ID NO: 45)"}, "HSV": {"tested_on": "HSV", "conditions": "continuous suppressive administration, early intervention; Corey et al. 2004; cited from earlier work"}}}
{"smiles": "CCCCCCCCCCCCCC(=O)O[C@H](CCCCCCCCCCC)CC(=O)O[C@@H]1[C@@H](NC(=O)C[C@H](CCCCCCCCCCC)OC(=O)CCCCCCCCCCCCC)[C@H](OC[C@H]2O[C@H](O)[C@H](NC(=O)C[C@H](O)CCCCCCCCCCC)[C@@H](OC(=O)C[C@H](O)CCCCCCCCCCC)[C@@H]2O)O[C@H](CO)[C@H]1OP(=O)(O)O", "note": "[GLA, glucopyranosyl lipid A]", "values": [{"measurement": "Th1 CD4 T cell response after immunization with SIV-Gag recombinant protein", "setting": "[1]", "result": "required for a robust Th1 CD4 T cell response"}]}
{"smiles": "CC(C)[C@H](N)C(=O)OCCOCn1cnc2c(=O)[nH]c(N)nc21", "note": "[Valacyclovir]", "values": [{"measurement": "reduction of HSV transmission", "setting": "HSV", "result": "less than 50%"}]}
